Legend:
Assay in all cases: NCI 60 cell panel SRB screen
HL-60(TB) = type: cell-based; conditions: Homo sapiens, single dose 10 μM, read-out: percent cell growth promotion
MOLT-4 = type: cell-based; conditions: Homo sapiens; MOLT-4, single dose 10 μM; read-out: percent cell growth promotion
SR = type: cell-based; conditions: Homo sapiens, single dose 10 μM, read-out: percent cell growth promotion
NCI-H322M = type: cell-based; conditions: Homo sapiens, single dose 10 μM, read-out: percent cell growth promotion
COLO 205 = type: cell-based; conditions: Homo sapiens; COLO 205, single dose 10 μM; read-out: percent cell growth promotion
HCT-116 = type: cell-based; conditions: Homo sapiens; HCT-116, single dose 10 μM; read-out: percent cell growth promotion
HCT-15 = type: cell-based; conditions: Homo sapiens; HCT-15, single dose 10 μM; read-out: percent cell growth promotion
HT29 = type: cell-based; conditions: Homo sapiens, HT-29; HT29, single dose 10 μM; read-out: percent cell growth promotion
KM12 = type: cell-based; conditions: Homo sapiens; KM12, single dose 10 μM; read-out: percent cell growth promotion
SW-620 = type: cell-based; conditions: Homo sapiens; SW-620, single dose 10 μM; read-out: percent cell growth promotion
SNB-75 = type: cell-based; conditions: Homo sapiens; SNB-75, single dose 10 μM; read-out: percent cell growth promotion
U251 = type: cell-based; conditions: Homo sapiens, U-251; U251, single dose 10 μM; read-out: percent cell growth promotion
MALME-3M = type: cell-based; conditions: Homo sapiens, Malme-3M, read-out: percent cell growth promotion
M14 = type: cell-based; conditions: Homo sapiens, M14, read-out: percent cell growth promotion
SK-MEL-28 = type: cell-based; conditions: Homo sapiens, SK-MEL-28, read-out: percent cell growth promotion
UACC-62 = type: cell-based; conditions: Homo sapiens, UACC-62, read-out: percent cell growth promotion
IGROV1 = type: cell-based; conditions: Homo sapiens, IGROV-1; IGROV1, single dose 10 μM; read-out: percent cell growth promotion
OVCAR-5 = type: cell-based; conditions: Homo sapiens; OVCAR-5, single dose 10 μM; read-out: percent cell growth promotion
786-0 = type: cell-based; conditions: Homo sapiens; 786-0, single dose 10 μM; read-out: percent cell growth promotion
A498 = type: cell-based; conditions: Homo sapiens; A498, single dose 10 μM; read-out: percent cell growth promotion
CAKI-1 = type: cell-based, human; conditions: Homo sapiens; CAKI-1, single dose 10 μM; read-out: percent cell growth promotion
RXF 393 = type: cell-based; conditions: Homo sapiens; RXF 393, single dose 10 μM; read-out: percent cell growth promotion
TK-10 = type: cell-based, human; conditions: Homo sapiens; TK-10, single dose 10 μM; read-out: percent cell growth promotion
DU-145 = type: cell-based; conditions: Homo sapiens; DU-145, single dose 10 μM; read-out: percent cell growth promotion
HS 578T = type: cell-based; conditions: Homo sapiens, Hs-578T, read-out: percent cell growth promotion
BT-549 = type: cell-based; conditions: Homo sapiens, BT-549, read-out: percent cell growth promotion

Compound: c1ccc(N2CCN(c3nncc4ccccc34)CC2)nc1 [Compound 8d, 1–(4-(Pyridin-2-yl)piperazin-1-yl)phthalazine]
- activity at 10 µM (HL-60(TB)): 96.6%
- activity at 10 µM (MOLT-4): 106%
- activity at 10 µM (SR): 103%
- activity at 10 µM (NCI-H322M): 114%
- activity at 10 µM (COLO 205): 106%
- activity at 10 µM (HCT-116): 103%
- activity at 10 µM (HCT-15): 108%
- activity at 10 µM (HT29): 98.2%
- activity at 10 µM (KM12): 104%
- activity at 10 µM (SW-620): 104%
- activity at 10 µM (SNB-75): 105%
- activity at 10 µM (U251): 96.9%
- activity at 10 µM (MALME-3M): 109%
- activity at 10 µM (M14): 102%
- activity at 10 µM (SK-MEL-28): 108%
- activity at 10 µM (UACC-62): 99.6%
- activity at 10 µM (IGROV1): 116%
- activity at 10 µM (OVCAR-5): 105%
- activity at 10 µM (786-0): 104%
- activity at 10 µM (A498): 97.8%
- activity at 10 µM (CAKI-1): 109%
- activity at 10 µM (RXF 393): 108%
- activity at 10 µM (TK-10): 105%
- activity at 10 µM (DU-145): 99%
- activity at 10 µM (HS 578T): 109%
- activity at 10 µM (BT-549): 104%

Compound: CCOC(=O)N1CCN(c2nnc(C)c3ccccc23)CC1 [Compound 8f, Ethyl 4–(4-methylphthalazin-1-yl)piperazine-1-carboxylate]
- activity at 10 µM (HL-60(TB)): 114%
- activity at 10 µM (MOLT-4): 109%
- activity at 10 µM (SR): 101%
- activity at 10 µM (NCI-H322M): 101%
- activity at 10 µM (COLO 205): 109%
- activity at 10 µM (HCT-116): 103%
- activity at 10 µM (HCT-15): 98.6%
- activity at 10 µM (HT29): 96%
- activity at 10 µM (KM12): 107%
- activity at 10 µM (SW-620): 104%
- activity at 10 µM (SNB-75): 101%
- activity at 10 µM (U251): 96%
- activity at 10 µM (MALME-3M): 102%
- activity at 10 µM (M14): 104%
- activity at 10 µM (SK-MEL-28): 113%
- activity at 10 µM (UACC-62): 109%
- activity at 10 µM (IGROV1): 109%
- activity at 10 µM (OVCAR-5): 95%
- activity at 10 µM (786-0): 93.3%
- activity at 10 µM (A498): 76.5%
- activity at 10 µM (CAKI-1): 90.3%
- activity at 10 µM (RXF 393): 108%
- activity at 10 µM (TK-10): 90.6%
- activity at 10 µM (DU-145): 100%
- activity at 10 µM (HS 578T): 106%
- activity at 10 µM (BT-549): 66.7%

Compound: Cc1nnc(N2CCN(c3ccccc3)CC2)c2ccccc12 [Compound 8g, 1-Methyl-4–(4-phenylpiperazin-1-yl)phthalazine]
- activity at 10 µM (HL-60(TB)): 103%
- activity at 10 µM (MOLT-4): 110%
- activity at 10 µM (SR): 107%
- activity at 10 µM (NCI-H322M): 112%
- activity at 10 µM (COLO 205): 97.7%
- activity at 10 µM (HCT-116): 113%
- activity at 10 µM (HCT-15): 98.5%
- activity at 10 µM (HT29): 98.3%
- activity at 10 µM (KM12): 109%
- activity at 10 µM (SW-620): 107%
- activity at 10 µM (SNB-75): 98.1%
- activity at 10 µM (U251): 96.7%
- activity at 10 µM (MALME-3M): 114%
- activity at 10 µM (M14): 94.8%
- activity at 10 µM (SK-MEL-28): 109%
- activity at 10 µM (UACC-62): 110%
- activity at 10 µM (IGROV1): 112%
- activity at 10 µM (OVCAR-5): 98.2%
- activity at 10 µM (786-0): 100%
- activity at 10 µM (A498): 71.7%
- activity at 10 µM (CAKI-1): 95.3%
- activity at 10 µM (RXF 393): 105%
- activity at 10 µM (TK-10): 97.2%
- activity at 10 µM (DU-145): 111%
- activity at 10 µM (HS 578T): 105%
- activity at 10 µM (BT-549): 75.5%
